{"source": "patent US4291175A", "about": "“1-Hydroxymethyl-11-deoxy-15-hydroxy-prosten-1-ol-derivatives” (American Cyanamid Company, priority 1980, dated 1981)", "type_in_all_cases": "in vivo", "details_in_all_cases": "Konzett data", "key": {"5-HT": {"test_system": "5-HT", "assay": "Konzett test, 5-HT (bronchodilator activity)"}, "Ach": {"test_system": "Ach", "assay": "Konzett test, Ach (bronchodilator activity)"}, "Hist": {"test_system": "Hist", "assay": "Konzett test, Hist (bronchodilator activity)"}}}
{"smiles": "CCCCCC(C)(O)/C=C/C1C(O)CC(=O)C1C/C=C\\CCCCO", "note": "(racemic) [dl-1,11,15-trihydroxymethyl-9-oxo-15-methyl-5-cis-13-trans prostadiene]", "values": [{"measurement": "5-HT (ED50 g/kg)", "setting": "5-HT", "value": 0.0083, "unit": "g/kg"}, {"measurement": "Ach (ED50 g/kg)", "setting": "Ach", "value": 0.0043, "unit": "g/kg"}, {"measurement": "Hist (ED50 g/kg)", "setting": "Hist", "value": 0.00075, "unit": "g/kg"}]}
